Where two headings read alike, the source gives them in different places. Some results are limits rather than exact numbers.

For orientation: IC50 means the concentration needed to halve the response being measured. Read a low IC50 as inhibition by little substance. Broadly, the Cmax is the maximum level reached in the sampled fluid or tissue. As a reminder, the AUC(0-t) is the area under the concentration-time curve up to a stated or last time point. In general, half-life refers to the time in which the quantity being followed falls by half. The low end stands for rapid decline, the high end for slow decline.

The target in series [1] is human α-thrombin (Homo sapiens (Human), UniProt P00734). In words: Inhibition of thrombin, fluorescent peptide substrate Boc-VPR-AMC. It counts as biochemical. The protocol:
For thrombin assay, a fluorescent peptide substrate (Boc-VPR-AMC (R&D Systems)) was used and reacted in a buffer containing 20 mM Hepes (pH 7.4), 140 mM NaCl, and 0.1% Tween 20 at room temperature. Assay parameters were adjusted to make the assay linearly related to time, enzyme, and substrate concentration.
The assay method for thrombin is as follows. Test compounds were each serially diluted with a buffer, and then 10 μL of compound solution was transferred to an assay plate. A buffer was added to the assay plate at 10 μL/well, and then a thrombin (human α-thrombin (BioPharm Lab.)) solution was added at 15 μL/well. A Boc-VPR-AMC substrate solution was added at 15 μL/well, and the resulting mixture was incubated for 60 min at 25° C. A terminating solution (0.1 M acetic acid) was added at 15 μL/well, and detection was performed within 30 min by using a SpectraMax i3x microplate reader.

Series [2] in a line: In vivo pharmacokinetic study in SD rats. The note with it: clear. On the procedure:
After adaptive feeding, the SPF SD rats were each subjected to a single administration of 1 mg/kg or 3 mg/kg of the compound of the present disclosure intragastrically or by tail vein bolus injection. Plasma was collected at specific time points after administration, and the concentration of the compound in plasma was detected by LC-MS/MS (AB Sciex Qtrap 4500).

Series [3] concerns lectin pathway (MBL) in human serum. The experiment in a line: Inhibition of activity of lectin pathway (MBL) in human serum (WIESLAB Complement System MBL Pathway kit). It counts as biochemical. The note with it: 1% human serum. The protocol:
The inhibition of the activity of the lectin pathway (MBL) in human serum by compounds was detected using a WIESLAB® Complement System MBL Pathway kit (SVAR, COMPLMP320). Test compounds were each serially diluted in a buffer (Diluent MP), and 1% human serum was incubated with the diluted compound solution for 15 min at room temperature. 100 μL of the mixture was added to a microplate and incubated at 37° C. for 60 min. The liquid in the wells was discarded, and the microplate was washed three times with a washing solution. A Conjugate antibody solution was added at 100 μL/well, and the resulting mixture was incubated for 30 min at 25° C. The liquid in the wells was discarded, and the microplate was washed three times with a washing solution; a substrate solution was added at 100 μL/well, and the resulting mixture was incubated for 30 min at 25° C.; the terminator was added at 50 μL/well, and the absorbance at 405 nm was detected within 30 min by using a microplate reader.

The mark [4] stands for this setting: Sprague-Dawley (SD), rat, plasma, 1 mg/kg, IV, not fasting.
Setting [5] is: Sprague-Dawley (SD), rat, plasma, 1 mg/kg, PO, fasting.

`C[C@H](NC(=O)[C@H]1C[C@H](Cc2ccc(F)cc2)CN1)C(=O)NC1CCc2nc(N)ccc21` (stereo partly drawn) [Compound L001, (2R,4S)—N-((2S)-1-((2-amino-6,7-dihydro-5H-cyclopenta[b]pyridin-5-yl)amino)-1-oxopropan-2-yl)-4-(4-fluorobenzyl) pyrrolidine-2-carboxamide]: in series [1], the IC50 is > 50 µM. In series [2] (1 mg/kg, IV, not fasting), this compound gave an AUClast of 54837 ± 1386 ng·h/mL, a Cmax of 7297 ± 154 ng/mL and a T1/2 of 31.1 ± 1.27 h. In series [2] (1 mg/kg, PO, fasting), this compound returned an AUClast of 9822 ± 108 ng·h/mL, a Cmax of 1483 ± 41.0 ng/mL and a T1/2 of 10.1 h. In series [3], this compound had a concentration for half-maximal inhibition (IC50) of 2.67 nM.
`C[C@H](NC(=O)[C@H]1C[C@H](Cc2ccc(F)cc2)CN1)C(=O)N[C@@H]1CCc2nc(N)ccc21` [Compound L001-IS-01, (2R,4S)—N—((S)-1-(((R)-2-amino-6,7-dihydro-5H-cyclopenta[b]pyridin-5-yl)amino)-1-oxopropan-2-yl)-4-(4-fluorobenzyl) pyrrolidine-2-carboxamide] gave an IC50 in series [1] of 27.4 µM. In series [2] (1 mg/kg, IV, not fasting), this compound had an AUClast of 299766 ± 11465 ng·h/mL, a Cmax of 23267 ± 1538 ng/mL and a T1/2 of 42.4 ± 3.40 h. Also, in series [2] (3 mg/kg, PO, fasting), the AUClast worked out at 188265 ± 20044 ng·h/mL, the Cmax came out at 6070 ± 914 ng/mL and the T1/2 came to 43.9 ± 8.44 h. The IC50 in series [3] came out at 0.52 nM.
As for `C[C@H](NC(=O)[C@H]1C[C@H](Cc2ccc(-c3ccccc3)cc2)CN1)C(=O)NC1CCc2nc(N)ccc21` (stereo partly drawn) [Compound L002, (2R,4S)-4-([1,1′-biphenyl]-4-ylmethyl)-N-((2S)-1-((2-amino-6,7-dihydro-5H-cyclopenta[b]pyridin-5-yl)amino)-1-oxopropan-2-yl) pyrrolidine-2-carboxamide], the IC50 in series [1] is > 50 µM; in series [3] it was 2.48 nM.
As to `Nc1ccc2c(n1)CCC2NC(=O)[C@@H]1CCCN1C(=O)[C@H]1C[C@H](Cc2ccc(-c3ccccc3)cc2)CN1` (stereo partly drawn) [Compound L028, (2S)-1-(2R,4S)-4-([1,1′-biphenyl]-4-(4-ylmethyl)pyrrolidine-2-carbonyl)-N-(2-amino-6,7-dihydro-5H-cyclopenta[b]pyridin-5-yl) pyrrolidine-2-carboxamide], the 50% inhibitory concentration (IC50) in series [1] is 16.6 µM; in series [3] it was 4.09 nM.
In series [2] (1 mg/kg, IV, not fasting), “(2R)—N-((2S)-1-((2-amino-6,7-dihydro-5H-cyclopenta[b]pyridin-5-yl)amino)-1-oxopropan-2-yl)-4-phenyl-1,2,3,6-tetrahydropyridine-2-carboxamide [Compound L023-IS-02]” showed an AUClast of 21567 ± 2996 ng·h/mL, a maximum concentration (Cmax) of 17400 ± 1026 ng/mL and a T1/2 of 3.93 ± 0.18 h. In series [2] (3 mg/kg, PO, fasting), this compound displayed an AUClast of 17996 ± 2579 ng·h/mL, a Cmax of 4340 ± 162 ng/mL and a T1/2 of 4.20 ± 0.54 h. For the same compound, the IC50 in series [3] stood at 3.36 nM.
`C[C@H](NC(=O)[C@H]1C[C@H](Cc2ccc(F)c(Cl)c2)CN1)C(=O)NC1CCc2nc(N)ccc21` (stereo partly drawn) [Compound L012, (2R,4S)—N-((2S)-1-((2-amino-6,7-dihydro-5H-cyclopenta[b]pyridin-5-yl)amino)-1-oxopropan-2-yl)-4-(3-chloro-4-fluorobenzyl) pyrrolidine-2-carboxamide]: in series [2] (1 mg/kg, IV, not fasting), the AUClast amounted to 97054 ± 1914 ng·h/mL, the maximum concentration (Cmax) came to 26933 ± 1167 ng/mL and the T1/2 came to 12.0 ± 3.72 h. In series [2] (1 mg/kg, PO, fasting), this compound had an AUClast of 11618 ± 919 ng·h/mL, a Cmax of 1777 ± 98.2 ng/mL and a T1/2 of 12.7 h. This compound also displayed a concentration for half-maximal inhibition (IC50) in series [3] of 4.06 nM.
Take `Nc1ccc2c(n1)CCC2NC(=O)[C@@H]1CCN1C(=O)[C@H]1C[C@H](Cc2ccc(-c3ccccc3)cc2)CN1` (stereo partly drawn) [Compound L027, (2S)-1-(2R,4S)-4-([1,1′-biphenyl]-4-(4-methyl)pyrrolidine-2-carbonyl)-N-(2-amino-6,7-dihydro-5H-cyclopenta[b]pyridin-5-yl) azetidine-2-carboxamide]: the IC50 in series [1] amounted to 11.9 µM; in series [3], 1.43 nM.
With `C[C@H](NC(=O)[C@@H]1C=C(c2ccc(F)cc2F)CCN1)C(=O)N[C@@H]1CCc2nc(N)ccc21` (single isomer, unassigned) [Compound L076-IS-02], the AUC(0-t) worked out at 25900 ± 556 ng·h/mL in series [2] (setting [4]) and 6970 ± 1210 ng·h/mL in series [2] (setting [5]). The half-life in series [2] (setting [4]) was 353 ± 16.2 min; in series [2] (setting [5]) it was 257 ± 16.8 min. The highest concentration (Cmax) in series [2] (Sprague-Dawley (SD), rat, plasma, 1 mg/kg, IV, not fasting, read-out: Cmax) turned out to be 22500 ± 1030 ng/mL; in series [2] (Sprague-Dawley (SD), rat, plasma, 1 mg/kg, PO, fasting, read-out: Cmax) it was 1350 ± 423 ng/mL. In series [3], this compound yielded a half-inhibitory concentration (IC50) of 11.6 nM.
`Nc1ccc2c(n1)CCC2NC(=O)[C@@H]1CCN1C(=O)[C@H]1C[C@H](Cc2ccc(F)cc2)CN1` (stereo partly drawn) [Compound L030, (2S)—N-(2-amino-6,7-dihydro-5H-cyclopenta[b]pyridin-5-yl)-1-((2R,4S)-4-(4-fluorobenzyl)pyrrolidine-2-carbonyl) azetidine-2-carboxamide]: the IC50 is 10.3 µM in series [1] and 1.85 nM in series [3].
